Laboratory results from publication PMC4364556, “Comparative Distribution and In Vitro Activities of the Urotensin II-Related Peptides URP1 and URP2 in Zebrafish: Evidence for Their Colocalization in Spinal Cerebrospinal Fluid-Contacting Neurons” (PLoS ONE, 2015).
Where a SMILES comes first, the peptide text is derived from it. Bridges are numbered along the chain shown (N, C = ends).

Biological target: T1, human UII receptor (hUT) (Homo sapiens, UniProt Q9UKP6)
T1 construct: expressed in transfected cells
T1 sequence (Q9UKP6 1-389): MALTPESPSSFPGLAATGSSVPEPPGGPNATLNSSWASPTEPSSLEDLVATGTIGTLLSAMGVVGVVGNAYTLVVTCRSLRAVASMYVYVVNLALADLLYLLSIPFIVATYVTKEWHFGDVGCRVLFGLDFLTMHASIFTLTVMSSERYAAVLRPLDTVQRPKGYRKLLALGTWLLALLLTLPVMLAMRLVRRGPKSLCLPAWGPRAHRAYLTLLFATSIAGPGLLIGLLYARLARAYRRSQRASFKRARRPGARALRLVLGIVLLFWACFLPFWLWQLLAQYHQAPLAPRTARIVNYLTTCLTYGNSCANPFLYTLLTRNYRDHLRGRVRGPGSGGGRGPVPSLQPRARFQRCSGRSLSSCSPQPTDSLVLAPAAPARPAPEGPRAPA
Assay: Intracellular calcium mobilization assay (hUT-CHO cells)
Type: cell-based
Conditions: for EC50: agonist, CHO cells stably transfected with human UT, Fluo-4 AM, 37°C, fluorescence 485/525 nm, 180 sec, peptides 10^-12 to 10^-6 M, peak fluorescence, four-parameter logistic, mean ± SEM of 7–13 independent experiments, read-out: pEC50, intracellular calcium mobilization (converted); for comparison of potency of URP1 and URP2 to activate the hUT: URP1 vs URP2; for times less potent than hUII to mobilize intracellular calcium: compared with hUII pEC50 = […]; for efficacy, increase in intracellular calcium: percentages of the baseline (baseline normalized to 100%), Fluo-4 AM peak fluorescence, similar to efficacies evoked by hUII and mURP, approximate ('around')
Experimental: CHO cells stably transfected with the human UII receptor (hUT-CHO) (Chatenet et al. 2004) were plated at a density of 4 x 10^4 cells/well in flat clear bottom black 96-well plates. Measures of intracellular calcium mobilization were performed as previously described (Dubessy et al. 2008) with slight modifications. Briefly, after 24 h in culture, cells were incubated for 1 h in a humidified incubator (37°C, 5% CO2) with 2 μM Fluo-4 acetoxymethyl ester (AM) calcium dye (Life Technologies) in Hank’s Buffer Saline Solution (HBSS; Life Technologies) buffered with 5 mM HEPES and supplemented with 2.5 mM probenecid (Sigma-Aldrich, Saint-Quentin Fallavier, France). Cells were washed twice with HBSS/HEPES/probenecid to remove Fluo-4 AM from the incubation medium and incubated in 150 μl of the same medium at 37°C for 15 min. Fluorescence was recorded using a Flexstation 3 fluorescence plate reader system (Molecular Devices, Saint-Grégoire, France) during 180 sec with an excitation wavelength of 485 nm, an emission wavelength of 525 nm and a cutoff filter of 515 nm. After 18 sec recording in basal conditions, 50 μl of graded concentration (10^-12 to 10^-6 M) of different peptides (4-fold final concentration) was added to the incubation medium with the built-in 8 channel pipettor at a rate of 47 μl/sec to assess their agonistic activity. After subtraction of mean fluorescence background from control wells without Fluo-4 AM, baseline was normalized to 100% and fluorescence peak values were determined for each concentration of peptide. Potency (EC50) and efficacy (Emax) were calculated with the Prism 5.0 software (GraphPad Software In., La Jolla, CA, USA) using a four-parameter logistic equation to fit peak fluorescence data.
For intracellular calcium mobilization assays, results from 7–13 independent experiments were expressed as mean ± SEM of Log(EC50) and plotted with box and whiskers. The normality of each data set was verified with the Shapiro-Wilk’s test and a one-way ANOVA test followed by a Tukey’s multiple comparison test to compare Log(EC50) between each peptide. Differences were considered significant where P<0.05.

[1] = hUT-CHO cells, one-way ANOVA followed by Tukey's test on Log(EC50)

EC50 | potency compared with the other tested peptides (hUT-CHO cells, vs hUII, URP1 and URP2, one-way ANOVA followed by Tukey's test on Log(EC50), P<0.05) | comparison of potency of URP1 and URP2 to activate the hUT [1] | times less potent than hUII to mobilize intracellular calcium (hUT-CHO cells) | efficacy, increase in intracellular calcium (hUT-CHO cells) | SMILES
2.45 nM | intermediate potency |  |  |  | CC(C)[C@H](NC(=O)[C@@H]1CSSC[C@H](NC(=O)[C@H](C)N)C(=O)N[C@@H](Cc2ccccc2)C(=O)N[C@@H](Cc2c[nH]c3ccccc23)C(=O)N[C@@H](CCCCN)C(=O)N[C@@H](Cc2ccc(O)cc2)C(=O)N1)C(=O)O [mURP, reference compound]
30.2 nM |  | equipotent to activate the hUT | 83 times | 200–250% | CC(C)[C@H](N)C(=O)N[C@H]1CSSC[C@@H](C(=O)N[C@@H](CO)C(=O)N[C@@H](CCC(N)=O)C(=O)N[C@@H](CC(N)=O)C(=O)O)NC(=O)[C@H](Cc2ccc(O)cc2)NC(=O)[C@H](CCCCN)NC(=O)[C@H](Cc2c[nH]c3ccccc23)NC(=O)[C@H](Cc2ccccc2)NC1=O [URP2] (H-VCFWKYCSQN-OH; disulfide 2-7)
10.2 nM |  | equipotent to activate the hUT | 28 times | 200–250% | CC(C)[C@H](NC(=O)[C@@H]1CSSC[C@H](NC(=O)[C@H](C)N)C(=O)N[C@@H](Cc2ccccc2)C(=O)N[C@@H](Cc2c[nH]c3ccccc23)C(=O)N[C@@H](CCCCN)C(=O)N[C@@H](Cc2ccc(O)cc2)C(=O)N1)C(=O)N[C@H](C(=O)N[C@@H](CC(N)=O)C(=O)O)[C@@H](C)O [URP1] (H-ACFWKYCVTN-OH; disulfide 2-7)
